“Also recorded” adds a separate entry of the source.
Legend:
COX-2 = test: LPS-induced COX-2 expression in RAW264.7 macrophages (western/northern blot); format: cell-based, mouse
Description: Cells. RAW264.7, a mouse macrophage cell line, was obtained from American Type Culture Collection. Cells were cultured in RPMI-1640 medium (available from Gibco Life Technology, in Gaithersburg, Md.) supplemented with 2 mM L-glutamine, antibiotics (100 units/ml penicillin-A and 100 units/ml streptomycin) and 10% heat-inactivated fetal bovine serum (Gibco/BRL) and maintained at 37° C in a humidified incubator containing 5% CO2.
(§1) Western blots. Total cellular extract, cytosolic fractions (for IkB) and nuclear fraction (for p65 antibody) were prepared according to Muller et al., Immunobiology, 187, 233-256, 1993 and separated on sodium dodecyl sulfatepolyacrylamide minigels (8% for iNOS or COX-2, and 10% for IkB or p65) and transferred to immobilon polyvinylidene difluoride membranes (Millipore, Bedford, Mass.). The membrane was incubated overnight at 4° C. with 1% bovine serum albumin and then incubated with anti-iNos, COX-2, α-Tubulin monoclonal antibodies (Transduction Laboratories, Lexington, Ky.), anti-IkB or anti-p65 polyclonal antibodies (Santa Cruz Biochemicals, Santa Cruz, Calif.). iNOS, IkB, p65, Cox-2, α-Tubulin were detected by NBT and BCIP staining (Sigma Chemical Co., St. Louis, Mo.).

NF-kB (p65) / IkB = test: Nuclear p65 / cytosolic IkB western blot in LPS-treated RAW264.7 macrophages; format: cell-based, mouse; conditions: 20 μg/ml, 100 ng/ml LPS for 30 minutes
Description: as §1
NF-kB is a transcription factor that is activated in response to stimulation by LPS, and activation of NF-kB is an essential factor in inducing iNOS gene expression in macrophages (Kim, Y. M., Biochem. Biophys. Res. Commun. 236, 655-660, 1997). To assess the effect of these compounds (20 μg/ml) on early stage of iNOS gene expression, the activation of NF-kB in RAW264.7 macrophages was examined using the electrophoretic mobility shift assay (EMSA) (FIGS. 6i and 6ii).

iNOS = iNOS expression in cultured primary smooth muscle cells from porcine cerebral arteries (immunostaining, Western blot); format: cell-based
Description: Culture of smooth muscle cells. The entire brain with dura attached was removed and placed in ice-cold sterile phosphate-buffered saline (PBS) (140 mM NaCl, 4 mM KCl, 1 mM KH2PO4, pH 7.4) containing antibiotics (100 U/ml penicillin G potassium, 100 μg/ml streptomycin sulfate, and 0.25 μg/ml fungizone) (Fisher Scientific, Springfield, N.J.). The arteries of the circle of Willis were removed and cleaned of surrounding tissue under a dissecting microscope. The arteries were then placed on a sterile petri dish and sliced longitudinally. The luminal surface was rubbed with a sterile cotton swab to remove endothelial cells. The vessels were placed in DMEM (Dulbecco's Modified Eagle Medium, Life Technologies, Grand Island, N.Y.) containing antibiotics and stored overnight at 4° C. The vessels were cut into approximately 2×2-mm explants, placed in a 10 cm petri dish, covered with DMEM containing antibiotics plus 20% FBS (fetal bovine serum, Sigma Chemical Co., St Louis, Mo.), and placed in an incubator in an atmosphere of 5% CO2 in air at 37° C. […]
Western blots. […] Expression of iNOS was detected by NBT and BCIP staining (Sigma Chemical Co., St. Louis, Mo.).
Photomicrographs of immunofluorescence at 20× were immediately taken with an Olympus fluorescence microscope fitted with an FITC filter. […]

[1] = test system: porcine cerebral arteries; test: Relaxation elicited by transmural nerve stimulation (TNS) in cerebral arterial segments; conditions: acute administration 30 μM, U-46619 tone
Description: In vitro tissue bath studies. The arterial segment (4 mm long) of the circle of Willis was dissected and cannulated with a stainless-steel rod (30-28 gauge) of hemispherical section, and a short piece of platinum wire, and mounted horizontally in a plastic tissue bath containing 6 ml of Krebs' bicarbonate solution. The platinum wire was bent into a U shape and anchored to a gate. The stainless-steel rod was connected to a stain gauge transducer (UC3, available from Gould) for isometric recording of changes in force. The temperature of Krebs' solution in the tissue baths, equilibrated with 95% O2 and 5% CO2, was maintained at 37° C. Tissues were equilibrated in the Krebs' solution for an initial 30 minutes and were mechanically stretched to a resting tension of 0.75 g for another 30 minutes. The segments of the circle of Willis were precontracted with 9,11-dideoxy-9α,11α-epoxymethanoprostagladin F2α(U-46619, 1 μM) to induce an active muscle tone of 0.5-0.75 g. Experimental drugs such as L-arginine and Oroxylin A of various concentrations, and TNS at 2,4,8 Hz were applied to induce relaxation. The arteries were then washed with pre-warmed Krebs' solution. […] Stimulation parameters were continuously monitored on a Tektronix oscilloscope. […] The magnitude of a vasodilator response induced by experimental drugs and TNS was expressed as a percentage of the maximum response induced by PPV. […]

## COc1c(O)cc2oc(-c3ccccc3)cc(=O)c2c1O [oroxylin A, 5,7-dihydroxy-6-methoxy flavone]
COX-2
  LPS-induced COX-2 gene expression (protein and mRNA): most potent among the compounds tested; also recorded: inhibited
NF-kB (p65) / IkB
  LPS-induced increase of nuclear p65 and decrease of cytosolic IkB: significantly inhibited
iNOS; LPS 10 μg/ml 20 hours, concomitant 60 μM
  LPS-induced iNOS-immunoreactive cultured smooth muscle cells: drastically decreased; also recorded: inhibition
iNOS; LPS 10 μg/ml, 30 μM and 60 μM
  LPS-induced iNOS proteins, Western blot: decreased by oroxylin A in a concentration-dependent manner
[1]
  relaxation elicited by TNS at 2, 4, and 8 Hz: slightly and significantly enhanced; also recorded: increased
